How the values were obtained:
Format in all cases: in vivo
Musca domestica = experiment: Test Example 2: treated filter paper with sucrose bait, death rate of Musca domestica; conditions: 500 ppm test solution, 0.7 ml on filter paper, 10 female imagoes, after 24 hours
Procedure: (§1) Preparations of the present compounds (1), (2), (3), (4), (5), (6), (7), (8), (9), (10), (13), (18), (23), (24), (25), (26), (27), (28), (29), (30), (31), (32), (33), (34), (35), (38) and (39) obtained according to Formulation Example 44 were diluted so that the active ingredient concentration was 500 ppm to obtain test solutions.
(§2) A filter paper having a diameter of 5.5 cm was spread on the bottom of a polyethylene cup having a diameter of 5.5 cm and 0.7 ml of the test solution was added dropwise onto the filter paper. As a bait 30 mg of sucrose was uniformly placed on the filter paper. Into the polyethylene cup, 10 female imagoes of Musca domestica were released and the cup was sealed with a lid. After 24 hours, the number of surviving Musca domestica was examined and the death rate of the pest was calculated.
As a result, in treatments with the present compounds (1), (2), (3), (4), (5), (6), (7), (8), (9), (10), (13), (18), (23), (24), (25), (26), (27), (28), (29), (30), (31), (32), (33), (34), (35), (38) and (39), the death rate of the pest was 70% or more.

Culex pipiens pallens = experiment: Test Example 4: larvae released into treated water, death rate of Culex pipiens pallens; conditions: 24 h, active ingredient concentration 3.5 ppm in water, 20 last-instar larvae, after one day
Procedure: as §1, with “(7),” for “(7), (8), (9), (10),”, “(13), (14), (15), (16),” for “(13),”, “(18), (22),” for “(18),”, “(35), (36),” for “(35),”
To 100 mL of ion-exchanged water, 0.7 ml of the test solution was added (active ingredient concentration: 3.5 ppm). Into the solution, 20 last-instar larvae of Culex pipiens pallens were released. After one day, the number of surviving Culex pipiens pallens was examined and the death rate of the pest was calculated.
As a result, in treatments with the present compounds (1), (2), (3), (4), (5), (6), (7), (13), (14), (15), (16), (18), (22), (23), (24), (25), (26), (27), (28), (29), (30), (31), (32), (33), (34), (35), (36), (38) and (39), the death rate of the pest was 90% or more.

Blattalla germanica = experiment: Test Example 3: treated filter paper with sucrose bait, death rate of Blattalla germanica; conditions: 500 ppm test solution, 0.7 ml on filter paper, 2 male imagoes, after 6 days; for pest or weed control at 500 ppm: 144 h
Procedure: as §1, with “compounds” for “compounds (1), (2),”, “(7),” for “(7), (8),”, “(13),” for “(13), (18),”
as §2, with “2 male” for “10 female”, “Blattalla germanica” for “Musca domestica”, “6 days,” for “24 hours,”
As a result, in treatments with the present compounds (3), (4), (5), (6), (7), (9), (10), (13), (23), (24), (25), (26), (27), (28), (29), (30), (31), (32), (33), (34), (35), (38) and (39), the death rate of the pest was 100%.

| Structure (SMILES) | pest or weed control at 500 ppm (Musca domestica) | pest or weed control at 3.5 ppm (Culex pipiens pallens) | pest or weed control at 500 ppm (Blattalla germanica) | death rate of the pest (Blattalla germanica) |
| --- | --- | --- | --- | --- |
| C#CCCCCC(C(=O)OC)S(=O)(=O)CCC(F)(F)F (centres unmarked) [present compound (1), methyl 2-(3,3,3-trifluoropropylsulfonyl)-7-octynoate] | ≥ 70% | ≥ 90% |  |  |
| C#CCCCCC(F)(C(=O)OC)S(=O)(=O)CCC(F)(F)F (centres unmarked) [present compound (2), methyl 2-fluoro-2-(3,3,3-trifluoropropylsulfonyl)-7-octynoate] | ≥ 70% | ≥ 90% |  |  |
| C#CCCCCC(F)(C(N)=O)S(=O)(=O)CCC(F)(F)F (centres unmarked) [present compound (3), 2-fluoro-2-(3,3,3-trifluoropropylsulfonyl)-7-octynamide] | ≥ 70% | ≥ 90% | 100% |  |
| C#CCCCCC(Cl)(C(=O)OC)S(=O)(=O)CCC(F)(F)F (centres unmarked) [present compound (4), methyl 2-chloro-2-(3,3,3-trifluoropropylsulfonyl)-7-octyonate] |  |  |  | 100% |
| C#CCCCCC(Cl)(C(N)=O)S(=O)(=O)CCC(F)(F)F (centres unmarked) [present compound (5), 2-chloro-2-(3,3,3-trifluoropropylsulfonyl)-7-octynamide] | ≥ 70% | ≥ 90% | 100% |  |
| C#CCCCCC(C)(C(=O)OC)S(=O)(=O)CCC(F)(F)F (centres unmarked) [present compound (6), methyl 2-methyl-2-(3,3,3-trifluoropropylsulfonyl)-7-octyonate] |  |  |  | 100% |
| C#CCCCCC(C)(C(N)=O)S(=O)(=O)CCC(F)(F)F (centres unmarked) [present compound (7), 2-methyl-2-(3,3,3-trifluoropropylsulfonyl)-7-octynamide] | ≥ 70% | ≥ 90% | 100% |  |
| C#CCCC(C(=O)OC)S(=O)(=O)CCC(F)(F)F (centres unmarked) [present compound (8), methyl 2-(3,3,3-trifluoropropylsulfonyl)-5-hexynoate] | ≥ 70% |  |  |  |
| C#CCCC(F)(C(=O)OC)S(=O)(=O)CCC(F)(F)F (centres unmarked) [present compound (9), methyl 2-fluoro-2-(3,3,3-trifluoropropylsulfonyl)-5-hexynoate] | ≥ 70% |  | 100% |  |
| C#CCCC(F)(C(N)=O)S(=O)(=O)CCC(F)(F)F (centres unmarked) [present compound (10), 2-fluoro-2-(3,3,3-trifluoropropylsulfonyl)-5-hexynamide] | ≥ 70% |  | 100% |  |
| C#CCCCC(F)(C(N)=O)S(=O)(=O)CCC(F)(F)F (centres unmarked) [present compound (13), 2-fluoro-2-(3,3,3-trifluoropropylsulfonyl)-6-heptynamide] | ≥ 70% | ≥ 90% | 100% |  |
| C#CCCCCCC(C(=O)OC)S(=O)(=O)CCC(F)(F)F (centres unmarked) [present compound (14), methyl 2-(3,3,3-trifluoropropylsulfonyl)-8-nonynoate] |  | ≥ 90% |  |  |
| C#CCCCCCC(F)(C(=O)OC)S(=O)(=O)CCC(F)(F)F (centres unmarked) [present compound (15), methyl 2-fluoro-2-(3,3,3-trifluoropropylsulfonyl)-8-nonynoate] |  | ≥ 90% |  |  |
| C#CCCCCCC(F)(C(N)=O)S(=O)(=O)CCC(F)(F)F (centres unmarked) [present compound (16), 2-fluoro-2-(3,3,3-trifluoropropylsulfonyl)-8-nonynamide] |  | ≥ 90% |  |  |
| COC(=O)C(Cl)(CC=CC(F)(F)F)S(=O)(=O)CCC(F)(F)F (centres unmarked) [present compound (18), methyl 2-chloro-6,6,6-trifluoro-2-(3,3,3-trifluoropropylsulfonyl)-4-hexenoate] | ≥ 70% | ≥ 90% |  |  |
| CCC(=CCC(C(=O)OC)S(=O)(=O)CCC(F)(F)F)C(F)(F)F (centres unmarked) [present compound (36), methyl 5-trifluoromethyl-2-(3,3,3-trifluoropropylsulfonyl)-4-heptenoate] |  | ≥ 90% |  |  |

Source: patent US8247595B2, “Organic sulfur compound and its use for controlling harmful arthropod” (Sumitomo Chemical Company, Limited, priority 2007, dated 2012)
